Assay [1] concerns the target T1, recombinant human ghrelin receptor (HEK293/GRLN) (Homo sapiens, UniProt Q92847).
T1 construct: expressed in transfected cells
Nature of the assay: Ghrelin inverse agonist potency (EC50) with IP-1 (IP-One HTRF) assay. In kind it is cell-based. The conditions noted are these: inverse agonist potency, IP-1 assay; read-out: EC50 (Activity). The method, then:
Evaluation of Ghrelin Inverse Agonist Potency (EC50) with IP-1 Assay:
HEK293 cells stably expressing recombinant human ghrelin receptor (HEK293/GRLN) were used in the IP-One HTRF assay. One day before the test, cells were seeded at a density of 1.5×10^4/well in a Matrigel® coated 384-well plate with 30 μL of complete Dulbecco's Modified Eagle's Medium and incubated at 37° C. in 5% CO2 for 18-22 hours. On the test day, the medium was removed by centrifugation at 600 rpm for 30 seconds, and 20 μL of stimulation buffer containing 1x tested compound was added with Bravo (Agilent technologies). The plate was then incubated at 37° C. 5% CO2 for 1 hour. After the incubation, 5 μL of IP1-d2 and 5 μL of Tb-Cryp were added to all wells using multidrop Combi(Thermo). After additional incubation at room temperature for 1 hour, the plates were read on Envision with 620 and 665 (Perkin Elmer).

Assay [2] deals with T2, GHSR-1a (HEK293/GHSR1a cell line) (Homo sapiens, UniProt Q92847).
T2 construct: expressed in transfected cells; host or cells: HEK293/GHSR1a cell line
As to the kind of experiment: Ghrelin antagonist potency (IC50) with calcium FLIPR assay, ghrelin 10 nM. It counts as cell-based. The conditions noted are these: ghrelin antagonist potency, read-out: IC50 (Activity). In outline:
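Fluorescence read-out of intracellular calcium over 2 min. Agonist EC50 came from compound added alone at t=20 sec. Antagonist IC50 came from the reduction of the response to 10 nM ghrelin co-added with compound at t=20 sec. Both were fitted from dose-response data.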

Drawing on patent publication US10501479B2, “Benzenesulfonyl-asymmetric ureas and medical uses thereof” (HELSINN HEALTHCARE SA, priority 2016, dated 2019), this text covers EC50 and IC50 for 24 compounds.

Values joined by “and” are separate entries in the source; they are usually repeats but may differ in a detail not shown here. Equal values may be shown once. Where a name gives a salt, the structure may show the parent alone.

T2 sequence (Q92847 whole entry): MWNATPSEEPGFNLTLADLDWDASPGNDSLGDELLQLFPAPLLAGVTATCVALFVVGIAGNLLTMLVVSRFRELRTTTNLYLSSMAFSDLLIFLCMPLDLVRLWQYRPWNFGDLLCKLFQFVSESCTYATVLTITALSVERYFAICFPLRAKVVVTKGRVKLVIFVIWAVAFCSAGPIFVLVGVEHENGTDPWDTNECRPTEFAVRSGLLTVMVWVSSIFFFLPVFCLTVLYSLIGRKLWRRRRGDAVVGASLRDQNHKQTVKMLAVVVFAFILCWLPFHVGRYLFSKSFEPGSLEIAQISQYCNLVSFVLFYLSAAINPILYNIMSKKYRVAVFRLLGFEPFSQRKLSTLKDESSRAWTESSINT
T1 sequence (Q92847 whole entry): as above

Regarding `C[C@H](NC(=O)Nc1ccc(S(=O)(=O)Cc2ccc(O)cc2)cc1)c1cccc(Cl)c1Cl` [H1099, (S)-1-(1-(2,3-dichlorophenyl)ethyl)-3-(4-((4-hydroxybenzyl)sulfonyl)phenyl)urea], the EC50 in assay [1] stood at 1140 nM. The IC50 in assay [2] amounted to 8670 nM.
`CC(c1ccc2c(c1)CCNC2)S(=O)(=O)c1ccc(NC(=O)N[C@@H](C)c2cccc(Cl)c2Cl)cc1` (stereo partly drawn) [H1102, 1-((S)-1-(2,3-dichlorophenyl)ethyl)-3-(4-((1-(1,2,3,4-tetrahydroisoquinolin-6-yl)ethyl)sulfonyl)phenyl)urea hydrochloride]: the EC50 in assay [1] is 58.3 nM and 21.6 nM. Further, in assay [2], the IC50 was found to be 73.9 nM.
In the case of `CC(c1ccc2c(c1)CCNC2)S(=O)(=O)c1ccc(NC(=O)N[C@@H](C)c2cccc(Cl)c2Cl)cc1` (stereo partly drawn) [H1103, 1-((S)-1-(2,3-dichlorophenyl)ethyl)-3-(4-((1-(1,2,3,4-tetrahydroisoquinolin-6-yl)ethyl)sulfonyl)phenyl)urea hydrochloride], the half-maximal effective concentration (EC50) in assay [1] is 66 nM. Moreover, the half-inhibitory concentration (IC50) in assay [2] was found to be 487 nM.
Taken in the same sequence, the figures for `C[C@H](NC(=O)Nc1ccc(S(=O)(=O)Nc2ccc3[nH]ncc3c2)cc1)c1cccc(Cl)c1Cl` [H1106, (S)-4-(3-(1-(2,3-dichlorophenyl)ethyl)ureido)-N-(1H-indazol-5-yl) benzenesulfonamide] were 862 nM and 1430 nM.
Take `C[C@H](NC(=O)Nc1ccc(S(=O)(=O)Nc2ccc(-c3cnc[nH]3)cc2)cc1)c1cccc(Cl)c1Cl` [H1109, (S)-N-(4-(1H-imidazol-5-yl)phenyl)-4-(3-(1-(2,3-dichlorophenyl)ethyl)ureido) benzenesulfonamide]: the 50% effective concentration (EC50) in assay [1] amounted to 136 nM. Moreover, the IC50 in assay [2] stood at 427 nM.
Regarding `C[C@H](NC(=O)Nc1ccc(S(=O)(=O)Nc2ccc(N)nn2)cc1)c1cccc(Cl)c1Cl` [H1129, (S)-N-(6-aminopyridazin-3-yl)-4-(3-(1-(2,3-dichlorophenyl)ethyl)ureido) benzenesulfonamide], the concentration for a half-maximal effect (EC50) in assay [1] is 2460 nM. In addition, the IC50 in assay [2] was determined as 3330 nM.
For `C[C@H](NC(=O)Nc1ccc(S(=O)(=O)Cc2cnc(N)nc2)cc1)c1cccc(Cl)c1Cl` [H1130, (S)-1-(4-(((2-aminopyrimidin-5-yl)methyl)sulfonyl)phenyl)-3-(1-(2,3-dichlorophenyl)ethyl)urea], the concentration giving a half-maximal response (EC50) in assay [1] worked out at 1280 nM. Also, the IC50 in assay [2] was 3380 nM.
On to `CC(NC(=O)Nc1ccc(S(=O)(=O)Cc2ccc(CO)cc2)cc1)c1cccc2ccccc12` (stereo not drawn) [H1132, 1-(4-((4-(hydroxymethyl)benzyl)sulfonyl)phenyl)-3-(1-(naphthalen-1-yl)ethyl)urea], for which the EC50 in assay [1] amounted to 219 nM. In assay [2], the IC50 was 574 nM.
The corresponding values for `CC(NC(=O)Nc1ccc(S(=O)(=O)Nc2ccc(CO)cc2)cc1)c1cccc2ccccc12` (stereo not drawn) [H1133, N-(4-(hydroxymethyl)phenyl)-4-(3-(1-(naphthalen-1-yl)ethyl)ureido) benzenesulfonamide] are 170 nM and 419 nM.
Turning to `CC(NC(=O)Nc1ccc(S(=O)(=O)Nc2ccc(CO)cc2)cc1)c1ccccc1` (stereo not drawn) [H1141, N-(4-(hydroxymethyl)phenyl)-4-(3-(1-phenylethyl)ureido) benzenesulfonamide], the EC50 in assay [1] worked out at 562 nM. Further, the 50% inhibitory concentration (IC50) in assay [2] was found to be 2610 nM.
Taken in the same sequence, the figures for `CC(NC(=O)Nc1ccc(S(=O)(=O)Nc2ccc3c(c2)CNC3)cc1)c1cccc2ccccc12` (stereo not drawn) [H1155, N-(isoindolin-5-yl)-4-(3-(1-(naphthalen-1-yl)ethyl)ureido) benzenesulfonamide] were 5.03 nM and 4.3 nM.
For the compound `CC(C)NC(=O)Nc1ccc(S(=O)(=O)Cc2ccc3c(c2)CNC3)cc1` [H1178, 1-(4-((isoindolin-5-ylmethyl)sulfonyl)phenyl)-3-isopropylurea], the concentration for a half-maximal effect (EC50) in assay [1] came out at 1020 nM. Further, the 50% inhibitory concentration (IC50) in assay [2] stood at 4890 nM.
Consider `CCNC(=O)Nc1ccc(S(=O)(=O)Cc2ccc3c(c2)CNC3)cc1` [H1180, 1-ethyl-3-(4-((isoindolin-5-ylmethyl)sulfonyl)phenyl)urea], for which the EC50 in assay [1] was found to be 315 nM. The IC50 in assay [2] came to 14700 nM.
For the compound `C[C@H](NC(=O)Nc1ccc(S(=O)(=O)Cc2ccc(COS(=O)(=O)O)cc2)cc1)c1cccc(Cl)c1Cl` [H1181, (S)-4-(((4-(3-(1-(2,3-dichlorophenyl)ethyl)ureido)phenyl)sulfonyl)methyl) benzyl hydrogen sulfate], the EC50 in assay [1] turned out to be 957 nM. For the same compound, the concentration for half-maximal inhibition (IC50) in assay [2] was 3310 nM.
With `O=C(Nc1ccccc1)Nc1ccc(S(=O)(=O)Cc2ccc3c(c2)CNC3)cc1` [H1190, 1-(4-((isoindolin-5-ylmethyl)sulfonyl)phenyl)-3-phenylurea], in assay [1], the EC50 worked out at 317 nM. In addition, in assay [2], the IC50 came to 264 nM.
The corresponding values for `COc1ccc(CNC(=O)Nc2ccc(S(=O)(=O)Cc3ccc4c(c3)CNC4)cc2)cc1` [H1203, 1-(4-((isoindolin-5-ylmethyl)sulfonyl)phenyl)-3-(4-methoxybenzyl)urea] are 161 nM and 447 nM.
Taken in the same sequence, the figures for `CN(Cc1ccccc1)C(=O)Nc1ccc(S(=O)(=O)Cc2ccc3c(c2)CNC3)cc1` [H1204, 1-benzyl-3-(4-((isoindolin-5-ylmethyl)sulfonyl)phenyl)-1-methylurea] were 624 nM and 692 nM.
The corresponding values for `CC(C)(C)NC(=O)Nc1ccc(S(=O)(=O)Cc2ccc3c(c2)CNC3)cc1` [H1205, 1-(tert-butyl)-3-(4-((isoindolin-5-ylmethyl)sulfonyl)phenyl)urea] are 5340 nM and 9870 nM.
As for `CC(c1ccccc1)N(C)C(=O)Nc1ccc(S(=O)(=O)Cc2ccc3c(c2)CNC3)cc1` (stereo not drawn) [H1206, 3-(4-((isoindolin-5-ylmethyl)sulfonyl)phenyl)-1-methyl-1-(1-phenylethyl)urea], the 50% effective concentration (EC50) in assay [1] was determined as 252 nM. Also, in assay [2], the 50% inhibitory concentration (IC50) worked out at 262 nM.
Consider `COc1ccc(CNC(=O)Nc2ccc(S(=O)(=O)Cc3ccc4c(c3)CNC4)cc2)nc1` [H1212, 1-(4-((isoindolin-5-ylmethyl)sulfonyl)phenyl)-3-((5-methoxypyridin-2-yl)methyl)urea], for which the EC50 in assay [1] came out at 1780 nM. Further, in assay [2], the IC50 came out at 3100 nM.
Consider `O=C(NCc1ccsc1)Nc1ccc(S(=O)(=O)Cc2ccc3c(c2)CNC3)cc1` [H1217, 1-(4-((isoindolin-5-ylmethyl)sulfonyl)phenyl)-3-(thiophen-3-ylmethyl)urea], for which the EC50 in assay [1] turned out to be 1150 nM. Further, the concentration for half-maximal inhibition (IC50) in assay [2] amounted to 1450 nM.
For the compound `CN1Cc2ccc(CS(=O)(=O)c3ccc(NC(=O)NCC(C)(C)C)cc3)cc2C1` [H1228, 1-(4-(((2-methylisoindolin-5-yl)methyl)sulfonyl)phenyl)-3-neopentylurea], the EC50 in assay [1] is 1260 nM. Moreover, the concentration for half-maximal inhibition (IC50) in assay [2] stood at 766 nM.
As for `CC(C)C(C)NC(=O)Nc1ccc(S(=O)(=O)Cc2ccc3c(c2)CN(C)C3)cc1` (stereo not drawn) [H1229, 1-(3-methylbutan-2-yl)-3-(4-(((2-methylisoindolin-5-yl)methyl)sulfonyl)phenyl)urea], in assay [1], the concentration giving a half-maximal response (EC50) is 369 nM. Besides, the IC50 in assay [2] is 291 nM.
As to `CCN1Cc2ccc(C(C)(C)S(=O)(=O)c3ccc(NC(=O)NC(C)c4ccccc4)cc3)cc2C1` (stereo not drawn) [H1232, 1-(4-((2-(2-ethylisoindolin-5-yl)propan-2-yl)sulfonyl)phenyl)-3-(1-phenylethyl)urea], in assay [1], the EC50 came to 310 nM. Further, the half-inhibitory concentration (IC50) in assay [2] is above 30000 nM.
